# Assay results from patent publication US20240182945A1, “PRODUCTS FOR REGULATION OF EUKARYOTIC AND MICROBIAL CELLS GROWTH” (priority 2021, published 2024).
# Like-named read-outs stand apart in the source and are kept apart here.
# Tests used:
# Format in all cases: cell-based
# S. aureus = test: Sensitivity of PP to antibiotics, standard serial microbroth-dilution method (Example 24); details: for MIC: Staphylococcus aureus
# [1] = tested on: PP+MM within the biosample; test: Presence of bacterial growth in the wells supplemented with amoxicillin; set-up: key: “+” - presence of bacterial growth, antibiotic is ineffective; “−”- absence of bacterial growth, antibiotic is effective
# Experimental: Next, biosamples were plated to the wells of 48 well plate filled with Columbia+Pept Meat Agar supplemented with Amoxicillin. We modulated a QID, BID and TID administration of amoxicillin on PP+MM within the biosample. The following assumptions were made.
# Next we evaluated Presence of bacterial growth in the wells supplemented with amoxicillin.
# [2] = tested on: bacteria of endotracheal aspirate, sputum, BAL, wound swab from patients with ventilator associated pneumonia; test: Signs of bacterial growth on multi-well agar test system supplemented with antibiotics (naked eye or microscopy)
# Experimental: Endotracheal aspirate (n=3), sputum (n=3), BAL (n=2), wound swab (n=3) from patients with ventilator associated pneumonia were resuspended in PBS and 0.15 μL were plated on 24 well plate test system filled with Mixed medium (Columbia agar +Pepted Meat agar) (MM), Luria Broth (LB) agar, Pepted Meat agar (PMA), Columbia agar (CA), or Schaedler agar (SA).
# Two wells were antibiotic free.
# Biosamples were plated to the medium with a sterile swab with a slight pressure to the agar and making circular movements. Plates was incubated at 37 C and the analysis of the of microbial growth was monitored every 15 minutes from […] to 5 h, then hourly from 5 h to 8 h and then at 18 and 24 h post plating with a naked eye or with an AmScope microscope on 20× magnification with 12 mp camera.
# Three methods (algorithms) how to analyze bacterial growth were used.
# Method (Algorithm) #1. Lab technician, analyzed the appearance of bacterial growth by comparing the signs of bacterial growth in each well supplemented with antibiotic(s) at certain timepoint, with the signs of bacterial growth in the same well at previous time point(s).
# Method (Algorithm)#2. Lab technician analyzed the appearance of bacterial growth by comparing the signs of bacterial growth in each well supplemented with antibiotic(s) with bacterial growth in antibiotic-free control
# Method (Algorithm) #3. Lab technician analyzed the absence of bacterial growth in the wells in fixed time period of 3.0 h, 3.5 h; 4 h and 24 h.
# [3] = tested on: C. albicans, non-albicans Candida spp. Aspergillus spp. in oral swabs from patients with oral candidiasis; test: Signs of fungal growth on 12 well plate test system supplemented with antifungal antibiotics; details: naked eye examination, samples resistant to the antibiotic
# Experimental: Oral swabs (n=6) from patients with confirmed oral candidiasis caused by C. albicans, non-albicans Candida spp. Aspergillus spp., were dissolved with PBS and 0.1 uL were plated on 12 well plate test system filled with Mixed Medium 1 (see above), Mixed Medium 2 (Sabouraud agar+Potato Dextrose Agar+vitamins B12+B7) (MM2), Sabouraud agar (SA), Potato Dextrose Agar (PDA), Sabouraud's Heart Infusion (SABHI) agar. 11 wells were filled with media supplemented with antibiotics (taken at mean concentration of each antibiotic achieved in lungs at different timpoints post drug administration)—Nystatin, Amphotericin B, Clotrimazole, Fluconazole, Isavuconazole, Terbinafin, Posaconazole, Voriconazole, Anidulafungin, Caspofungin, Micafungin. One well was antibiotic free.
# Plates was incubated at 30 C and the analysis of the presence/absence of microbial growth was monitored every 15 minutes from […] to 5 h, then hourly from 5 h to 8 h and then at 18 and 24 h post plating with a naked eye.
# Three methods (algorithms) how to analyze fungal growth were used.
# Method (Algorithm) #1. Lab technician, analyzed the appearance of fungal growth by comparing the signs of fungal growth in each well supplemented with antibiotic(s) at certain timepoint, with the signs of funal growth in the same well at previous time point(s).
# Method (Algorithm)#2. Lab technician analyzed the appearance of fungal growth by comparing the signs of fungal growth in each well supplemented with antibiotic(s) with fungal growth in antibiotic-free control
# Method (Algorithm) #3. Lab technician analyzed the absence of fungal growth in the wells in fixed time period of 3.5 h; 5 h and 24 h.
# [4] = Method (Algorithm) #1, MM1 medium
# [5] = Method (Algorithm) #1, MM2 medium
# [6] = Method (Algorithm) #1, PDA medium
# [7] = Method (Algorithm) #1, SA (Sabouraud agar)
# [8] = Method (Algorithm) #1, SABHI medium
# [9] = Method (Algorithm) #2, MM1 medium
# [10] = Method (Algorithm) #2, MM2 medium
# [11] = Method (Algorithm) #2, PDA medium
# [12] = Method (Algorithm) #2, SA (Sabouraud agar)
# [13] = Method (Algorithm) #2, SABHI medium
compound,measurement,setting,value
CC1(C)S[C@@H]2[C@H](NC(=O)[C@H](N)c3ccc(O)cc3)C(=O)N2[C@H]1C(=O)O [Amoxicillin],Sensitivity (CLSI interpretation),"S. aureus; Biosample 1, S. aureus",S
same,Sensitivity (CLSI interpretation),"S. aureus; Biosample 2, S. aureus",I
same,Sensitivity (CLSI interpretation),"S. aureus; Biosample 3, S. aureus",S
same,MIC,"S. aureus; Biosample 1, S. aureus",0.25 µg/mL
same,MIC,"S. aureus; Biosample 2, S. aureus, read-out: MIC",4 µg/mL
same,MIC,"S. aureus; Biosample 3, S. aureus, read-out: MIC",2 µg/mL
same,Presence of bacterial growth in the wells,"[1]; Biosample 1 (PP S. aureus), C0-6 h",−
same,Presence of bacterial growth in the wells,"[1]; Biosample 1 (PP S. aureus), C0-12 h",−
same,Presence of bacterial growth in the wells,"[1]; Biosample 1 (PP S. aureus), C0-24 h",−
same,Presence of bacterial growth in the wells,"[1]; Biosample 2 (PP S. aureus), C0-6 h",−
same,Presence of bacterial growth in the wells,"[1]; Biosample 2 (PP S. aureus), C0-12 h",+
same,Presence of bacterial growth in the wells,"[1]; Biosample 2 (PP S. aureus), C0-24 h",+
same,Presence of bacterial growth in the wells,"[1]; Biosample 3 (PP S. aureus), C0-6 h",−
same,Presence of bacterial growth in the wells,"[1]; Biosample 3 (PP S. aureus), C0-12 h",−
same,Presence of bacterial growth in the wells,"[1]; Biosample 3 (PP S. aureus), C0-24 h",+
Piperacillin-tazobactam,Mean hour at which bacterial growth became visible on the wells supplemented with a certain antibiotic,"[2]; microscopy examination, Method (Algorithm) #1, CA medium",3.5 h
same,Mean hour at which bacterial growth became visible on the wells supplemented with a certain antibiotic,"[2]; microscopy examination, Method (Algorithm) #1, LB medium",4 h
same,Mean hour at which bacterial growth became visible on the wells supplemented with a certain antibiotic,"[2]; microscopy examination, Method (Algorithm) #1, MM medium",3.5 h
same,Mean hour at which bacterial growth became visible on the wells supplemented with a certain antibiotic,"[2]; microscopy examination, Method (Algorithm) #1, PMA medium",3.5 h
same,Mean hour at which bacterial growth became visible on the wells supplemented with a certain antibiotic,"[2]; microscopy examination, Method (Algorithm) #1, SA medium",3.5 h
same,Mean hour at which bacterial growth became visible on the wells supplemented with a certain antibiotic,"[2]; microscopy examination, Method (Algorithm) #2, CA medium",3.5 h
same,Mean hour at which bacterial growth became visible on the wells supplemented with a certain antibiotic,"[2]; microscopy examination, Method (Algorithm) #2, LB medium",4 h
same,Mean hour at which bacterial growth became visible on the wells supplemented with a certain antibiotic,"[2]; microscopy examination, Method (Algorithm) #2, MM medium",4 h
same,Mean hour at which bacterial growth became visible on the wells supplemented with a certain antibiotic,"[2]; microscopy examination, Method (Algorithm) #2, PMA medium",4 h
same,Mean hour at which bacterial growth became visible on the wells supplemented with a certain antibiotic,"[2]; microscopy examination, Method (Algorithm) #2, SA medium",3.5 h
same,Mean hour at which bacterial growth became visible on the wells supplemented with a certain antibiotic,"[2]; naked eye examination, Method (Algorithm) #1, CA medium, samples resistant to the antibiotic",3.5 h
same,Mean hour at which bacterial growth became visible on the wells supplemented with a certain antibiotic,"[2]; naked eye examination, Method (Algorithm) #1, LB medium, samples resistant to the antibiotic",4 h
same,Mean hour at which bacterial growth became visible on the wells supplemented with a certain antibiotic,"[2]; naked eye examination, Method (Algorithm) #1, MM medium, samples resistant to the antibiotic",3.5 h
same,Mean hour at which bacterial growth became visible on the wells supplemented with a certain antibiotic,"[2]; naked eye examination, Method (Algorithm) #1, PMA medium, samples resistant to the antibiotic",3.5 h
same,Mean hour at which bacterial growth became visible on the wells supplemented with a certain antibiotic,"[2]; naked eye examination, Method (Algorithm) #1, SA medium, samples resistant to the antibiotic",4 h
same,Mean hour at which bacterial growth became visible on the wells supplemented with a certain antibiotic,"[2]; naked eye examination, Method (Algorithm) #2, CA medium, samples resistant to the antibiotic",5.5 h
same,Mean hour at which bacterial growth became visible on the wells supplemented with a certain antibiotic,"[2]; naked eye examination, Method (Algorithm) #2, LB medium, samples resistant to the antibiotic",5 h
same,Mean hour at which bacterial growth became visible on the wells supplemented with a certain antibiotic,"[2]; naked eye examination, Method (Algorithm) #2, MM medium, samples resistant to the antibiotic",4 h
same,Mean hour at which bacterial growth became visible on the wells supplemented with a certain antibiotic,"[2]; naked eye examination, Method (Algorithm) #2, PMA medium, samples resistant to the antibiotic",4 h
same,Mean hour at which bacterial growth became visible on the wells supplemented with a certain antibiotic,"[2]; naked eye examination, Method (Algorithm) #2, SA medium, samples resistant to the antibiotic",5.5 h
C[C@@H]1[C@H](O)[C@@H](C)/C=C/C=C/CC/C=C/C=C/C=C/C=C/C(O[C@H]2O[C@H](C)[C@@H](O)[C@H](N)[C@@H]2O)CC2O[C@](O)(CC(O)C(O)CCC(O)CC(O)CC(O)CC(=O)O[C@H]1C)CC(O)C2C(=O)O (stereo partly shown) [Nystatin],Mean hour at which fungal growth became visible on the wells supplemented with a certain antibiotic,[3]; [4],4 h
same,Mean hour at which fungal growth became visible on the wells supplemented with a certain antibiotic,[3]; [5],4.5 h
same,Mean hour at which fungal growth became visible on the wells supplemented with a certain antibiotic,[3]; [6],5 h
same,Mean hour at which fungal growth became visible on the wells supplemented with a certain antibiotic,[3]; [7],6 h
same,Mean hour at which fungal growth became visible on the wells supplemented with a certain antibiotic,[3]; [8],5.5 h
same,Mean hour at which fungal growth became visible on the wells supplemented with a certain antibiotic,[3]; [9],4.5 h
same,Mean hour at which fungal growth became visible on the wells supplemented with a certain antibiotic,[3]; [10],6 h
same,Mean hour at which fungal growth became visible on the wells supplemented with a certain antibiotic,[3]; [11],6.5 h
same,Mean hour at which fungal growth became visible on the wells supplemented with a certain antibiotic,[3]; [12],6 h
same,Mean hour at which fungal growth became visible on the wells supplemented with a certain antibiotic,[3]; [13],7.5 h
C[C@@H](c1nc(-c2ccc(C#N)cc2)cs1)[C@](O)(Cn1cncn1)c1cc(F)ccc1F [Isavuconazole],Mean hour at which fungal growth became visible on the wells supplemented with a certain antibiotic,[3]; [4],5 h
same,Mean hour at which fungal growth became visible on the wells supplemented with a certain antibiotic,[3]; [5],4.5 h
same,Mean hour at which fungal growth became visible on the wells supplemented with a certain antibiotic,[3]; [6],6 h
same,Mean hour at which fungal growth became visible on the wells supplemented with a certain antibiotic,[3]; [7],6.5 h
same,Mean hour at which fungal growth became visible on the wells supplemented with a certain antibiotic,[3]; [8],7 h
same,Mean hour at which fungal growth became visible on the wells supplemented with a certain antibiotic,[3]; [9],6 h
same,Mean hour at which fungal growth became visible on the wells supplemented with a certain antibiotic,[3]; [10],5.5 h
same,Mean hour at which fungal growth became visible on the wells supplemented with a certain antibiotic,[3]; [11],7.5 h
same,Mean hour at which fungal growth became visible on the wells supplemented with a certain antibiotic,[3]; [12],7.5 h
same,Mean hour at which fungal growth became visible on the wells supplemented with a certain antibiotic,[3]; [13],8.5 h
